Reference: patent US20220370453A1 (Storm Therapeutics Ltd, priority 2019, published 2022)

Assays:
BCDIN3D [1] = molecular target: T1, BCDIN3D (Homo sapiens, UniProt Q7Z5W3); experiment: BCDIN3D InCellPulse thermal stability assay in transfected A549 cells; format: cell-based; conditions: transiently transfected A549 cells, heat shock 58° C. 15 min
T1 sequence (Q7Z5W3 1-292): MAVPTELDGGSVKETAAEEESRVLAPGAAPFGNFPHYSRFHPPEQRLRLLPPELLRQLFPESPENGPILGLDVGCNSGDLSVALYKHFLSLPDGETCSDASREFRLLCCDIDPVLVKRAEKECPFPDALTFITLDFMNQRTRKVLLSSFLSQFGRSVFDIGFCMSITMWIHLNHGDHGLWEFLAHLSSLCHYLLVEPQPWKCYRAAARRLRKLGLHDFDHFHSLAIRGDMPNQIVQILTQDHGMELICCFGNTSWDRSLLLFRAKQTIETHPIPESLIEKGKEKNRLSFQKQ
Protocol: BCDIN3D InCellPulse™ Assay
The thermal stability assay was performed with lipofectamine 3000 transiently transfected A549 using the plasmid pICP-ePL-BCDIN3 Da. This plasmid encodes for BCDIN3D N-terminally fused to a Prolabel (ePL), complementing a split β-Galactosidase Enzyme System InCELL Pulse Technology (InCELL Hunter Detection Kit, DiscoverX/Eurofins, cat: 96-0079L). 20 μl A549 cells (1500 cell/well) were added with a multidrop device to compounds to a final DMSO concentration of 0.6% in 384-well polypropylene plate format in IMDM medium and pre-incubated with the compounds for 1 h at 37° C. and 5% CO2. Subsequently, a heat shock was applied to the entire sealed plate in a 58° C. water bath for 15 min. The plates were cooled to RT, spun down and 25 μl/well of EA Detection Solution at 3.3× (InCELL Hunter Detection Kit) was added per well. 21 μl of the mixture was added to a black 384-well measurement plate (Corning, PS, black, Flat Bottom, #3575), mix for 30 minutes on a plate shaker at RT. Finally, the luminescence was measured with a Perkin Elmer EnVision with 0.2 s measurement time in luminescence mode.

BCDIN3D [2] = molecular target: T1, BCDIN3D; experiment: BCDIN3D IC50 RFMS (RapidFire) assay with mini-helix; format: biochemical; conditions: mini-helix substrate 0.2 μM, SAM 6 μM, 25 nM enzyme
Summary of the method: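 SAH formation was measured by RapidFire mass spectrometry with D4- and 13C10-SAH internal standards after TCA quench. Substrates 6 μM SAM and 0.2 μM mini-helix reacted 1 h at 37 °C with 25 nM enzyme, which had been preincubated 10 min with compound (1% DMSO) in Tris pH 8.0 buffer with DTT, EDTA, BSA.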

| IC50 (BCDIN3D [1]) [nM] | IC50 (BCDIN3D [2]) [nM] | SMILES |
| --- | --- | --- |
| 887 | 179 | Cn1ncc2c(Nc3cc(F)c(Cl)c(F)c3)nc(NCC3(N)CC3)nc21 [Compound 2.20, 6-N-[(1-aminocyclopropyl)methyl]-4-N-(4-chloro-3,5-difluorophenyl)-1-methylpyrazolo[3,4-d]pyrimidine-4,6-diamine] |
| 2470 | 514 | Cn1ncc2c(Nc3cccc(OC(F)F)c3)nc(NCC3(N)CC3)nc21 [Compound 2.21, 6-N-[(1-aminocyclopropyl)methyl]-4-N-[3-(difluoromethoxy)phenyl]-1-methylpyrazolo[3,4-d]pyrimidine-4,6-diamine] |
| 1500 | 332 | CC(C)Oc1ccc(Nc2nc(NCC3(N)CC3)nc3c2cnn3C)cc1 [Compound 2.22, 6-N-[(1-aminocyclopropyl)methyl]-1-methyl-4-N-(4-propan-2-yloxyphenyl)pyrazolo[3,4-d]pyrimidine-4,6-diamine] |
| 473 | 59.1 | Cn1ncc2c(Nc3ccc(Cl)c(F)c3)nc(NCC3(N)CC3)nc21 [Compound 2.23] |
| 3500 | 2460 | Cn1ncc2c(Nc3cccc(F)c3F)nc(NCC3(N)CC3)nc21 [Compound 2.24, 6-N-[(1-aminocyclopropyl)methyl]-4-N-(2,3-difluorophenyl)-1-methylpyrazolo[3,4-d]pyrimidine-4,6-diamine] |
| 3520 | 1540 | Cn1ncc2c(Nc3cc(F)ccc3F)nc(NCC3(N)CC3)nc21 [Compound 2.25, 6-N-[(1-aminocyclopropyl)methyl]-4-N-(2,5-difluorophenyl)-1-methylpyrazolo[3,4-d]pyrimidine-4,6-diamine] |
| 4650 | 1000 | Cn1ncc2c(NCc3ccc(F)cc3F)nc(NCC3(N)CC3)nc21 [Compound 2.26] |
| 1810 | 262 | Cn1ncc2c(Nc3ccc(F)c(Cl)c3)nc(NCC3(N)CC3)nc21 [Compound 2.27, 6-N-[(1-aminocyclopropyl)methyl]-4-N-(3-chloro-4-fluorophenyl)-1-methylpyrazolo[3,4-d]pyrimidine-4,6-diamine] |
| 1070 | 57.4 | Cn1ncc2c(Nc3ccc(Cl)cc3)nc(NCC3(N)CC3)nc21 [Compound 2.28, 6-N-[(1-aminocyclopropyl)methyl]-4-N-(4-chlorophenyl)-1-methylpyrazolo[3,4-d]pyrimidine-4,6-diamine] |
| 3000 | 444 | Cn1ncc2c(Nc3cccc(F)c3)nc(NCC3(N)CC3)nc21 [Compound 2.29, 6-N-[(1-aminocyclopropyl)methyl]-4-N-(3-fluorophenyl)-1-methylpyrazolo[3,4-d]pyrimidine-4,6-diamine] |
| 1780 | 545 | Cc1nn(C)c2nc(NCC3(N)CC3)nc(Nc3ccc(C(F)(F)F)cc3)c12 [Compound 2.30, 6-N-[(1-aminocyclopropyl)methyl]-1,3-dimethyl-4-N-[4-(trifluoromethyl)phenyl]pyrazolo[3,4-d]pyrimidine-4,6-diamine] |
| 8240 | 976 | Cn1ncc2c(Nc3ccc(C#N)cc3)nc(NCC3(N)CC3)nc21 [Compound 2.31, 4-[[6-[(1-aminocyclopropyl)methylamino]-1-methylpyrazolo[3,4-d]pyrimidin-4-yl]amino]benzonitrile] |
| 815 | 176 | Cn1ncc2c(Nc3ccc(OC(F)(F)F)cc3)nc(NCC3(N)CC3)nc21 [Compound 2.32, 6-N-[(1-aminocyclopropyl)methyl]-1-methyl-4-N-[4-(trifluoromethoxy)phenyl]pyrazolo[3,4-d]pyrimidine-4,6-diamine] |
| 3860 | 327 | COc1ccc(Nc2nc(NCC3(N)CC3)nc3c2cnn3C)cc1 [Compound 2.33, 6-N-[(1-aminocyclopropyl)methyl]-4-N-(4-methoxyphenyl)-1-methylpyrazolo[3,4-d]pyrimidine-4,6-diamine] |
| 1420 | 201 | Cn1ncc2c(Nc3ccc(OC(F)F)cc3)nc(NCC3(N)CC3)nc21 [Compound 2.34, 6-N-[(1-aminocyclopropyl)methyl]-4-N-[4-(difluoromethoxy)phenyl]-1-methylpyrazolo[3,4-d]pyrimidine-4,6-diamine] |
| 1980 | 260 | Cn1ncc2c(Nc3cccc(Cl)c3)nc(NCC3(N)CC3)nc21 [Compound 2.35, 6-N-[(1-aminocyclopropyl)methyl]-4-N-(3-chlorophenyl)-1-methylpyrazolo[3,4-d]pyrimidine-4,6-diamine] |
| 1980 | 138 | Cn1ncc2c(Nc3ccc(C(F)F)cc3)nc(NCC3(N)CC3)nc21 [Compound 2.36, 6-N-[(1-aminocyclopropyl)methyl]-4-N-[4-(difluoromethyl)phenyl]-1-methylpyrazolo[3,4-d]pyrimidine-4,6-diamine] |
| 16500 | 8600 | Cn1ncc2c(NC34CC(C#N)(C3)C4)nc(NCC3(N)CC3)nc21 [Compound 2.37, 3-[[6-[(1-aminocyclopropyl)methylamino]-1-methylpyrazolo[3,4-d]pyrimidin-4-yl]amino]bicyclo[1.1.1]pentane-1-carbonitrile] |
| 2130 | 350 | Cn1ncc2c(Nc3ccc(F)c(F)c3)nc(NCC3(N)CC3)nc21 [Compound 2.39, 6-N-[(1-aminocyclopropyl)methyl]-4-N-(3,4-difluorophenyl)-1-methylpyrazolo[3,4-d]pyrimidine-4,6-diamine] |
| 234 | 33.3 | Cn1ncc2c(Nc3ccc(Cl)c(Cl)c3)nc(NCC3(N)CC3)nc21 [Compound 2.40, 6-N-[(1-aminocyclopropyl)methyl]-4-N-(3,4-dichlorophenyl)-1-methylpyrazolo[3,4-d]pyrimidine-4,6-diamine] |
| 1610 | 211 | COc1cc(Nc2nc(NCC3(N)CC3)nc3c2cnn3C)ccc1Cl [Compound 2.41, 6-N-[(1-aminocyclopropyl)methyl]-4-N-(4-chloro-3-methoxyphenyl)-1-methylpyrazolo[3,4-d]pyrimidine-4,6-diamine] |
| 2990 | 1260 | COc1ccc(CNc2nc(NCC3(N)CC3)nc3c2cnn3C)c(OC)c1 [Compound 2.42, N6-[(1-aminocyclopropyl)methyl]-N4-[(2,4-dimethoxyphenyl)methyl]-1-methyl-pyrazolo[3,4-d]pyrimidine-4,6-diamine] |
| 5940 | 2790 | Cn1ncc2c(NC34CC(F)(C3)C4)nc(NCC3(N)CC3)nc21 [Compound 2.43, N6-[(1-aminocyclopropyl)methyl]-N4-{3-fluorobicyclo[1.1.1]pentan-1-yl}-1-methyl-1H-pyrazolo[3,4-d]pyrimidine-4,6-diamine] |
| 329 | 56.5 | Cn1ncc2c(Nc3ccc(C(F)(F)F)cc3)nc(NCC3(N)CC3)nc21 [Compound 2.44, 6-N-[(1-aminocyclopropyl)methyl]-1-methyl-4-N-[4-(trifluoromethyl)phenyl]pyrazolo[3,4-d]pyrimidine-4,6-diamine] |
| 2470 | 424 | Cn1ncc2c(Nc3ccc(C(F)(F)F)nc3)nc(NCC3(N)CC3)nc21 [Compound 2.45, 6-N-[(1-aminocyclopropyl)methyl]-1-methyl-4-N-[6-(trifluoromethyl)pyridin-3-yl]pyrazolo[3,4-d]pyrimidine-4,6-diamine] |
